According to paper PMC8870237, “Improved Multimodal Tumor Necrosis Imaging with IRDye800CW-DOTA Conjugated to an Albumin-Binding Domain” (Cancers, 2022):

Key:
4T1-Luc2 tumors = test: SPECT/CT tumor necrosis imaging, quantified tumor uptake; type: in vivo, mouse; conditions: 4T1-Luc2 tumor-bearing mice, 24 h p.i.
Experimental: (§1) The 4T1-Luc2 cells (1.0 × 10^5) suspended in 15 µL PBS were inoculated bilaterally in 16 mice in four groups of four animals each. Nine days later, the tumor-bearing mice were injected with [^111In]3 (20 MBq, 2 nmol, in 200 µL PBS) into the tail vein, after which imaging was performed at timepoints 6, 24, 48, and 72 h post-injection (p.i.) under isoflurane anesthesia (4% induction, 1.5 to 2% maintenance in 100% O2), whilst maintaining the body temperature constant. First, FLI imaging was performed with a 730 nm excitation and 760 nm emission filter for 400 ms with 4 × 4 binning. Then, the mice received an intraperitoneal injection of D-luciferin (150 mg/kg) maintaining the position of the mice in the bed unaltered, and BLI imaging was performed with an open filter for 400 ms with 4 × 4 binning. Full body (head to tail base) SPECT images of the 5 cm axial field of view were obtained over a total scan time of 30 min, followed by a 2 min full-body CT. After imaging, the mice were euthanized for ex vivo analysis.
Acquired SPECT and PET images were reconstructed using SR-OSEM with 9 iterations and 128 subsets on a 36 × 36 × 35 mm matrix with 0.80 mm isotropic voxels. For the PET images, a decay correction of 109.7 min was applied. The PET and SPECT images were superposed with CT. The images were further analyzed in Pi-Mod. […]

[1] = system: 4T1-Luc2 tumor-bearing mice; test: Ex vivo biodistribution in 4T1-Luc2 tumor-bearing mice; set-up: species or system mouse; conditions: for Tumor to blood ratio / Tumor to muscle ratio: 4T1-Luc2 tumors; for Blood uptake / Bone marrow uptake / Bone uptake / Brain uptake / Colon uptake / Heart uptake / Kidneys uptake / Liver uptake / Lung uptake / Lymph nodes uptake / Muscle uptake / Pancreas uptake / Skin uptake / Small intestine uptake / Spleen uptake / 4T1-Luc2 Tumors uptake: ±SEM; for Blood uptake / Bone marrow uptake / Bone uptake / Brain uptake / Colon uptake / Heart uptake / Kidneys uptake / Liver uptake / Lung uptake / Lymph nodes uptake / Muscle uptake / Pancreas uptake / Skin uptake / Small intestine uptake / Spleen uptake: n = 4; for 4T1-Luc2 Tumors uptake: n = 8
Experimental: Female BALB/cAnNRj-nude mice (six to eight weeks old) were housed in ventilated cages in groups of four to six mice and were provided standard laboratory animal food pellets and water ad libitum. One week after arrival, tumor cells were injected bilaterally on the shoulders. Tumor growth was monitored three days per week with a caliper. All groups consisted of four mice with bilateral tumors.
as §1, with “Nine days later, the tumor-bearing mice were injected with [^111In]3 (20 MBq, 2 nmol, in 200 µL PBS) into the tail vein, after which imaging was performed at timepoints 6, 24, 48, and 72 h post-injection (p.i.) under isoflurane anesthesia (4% induction, 1.5 to 2% maintenance in 100% O2), whilst maintaining the body temperature constant.” left out
After the final imaging experiments, the mice were sacrificed by cervical dislocation, tumors and organs were collected, weighted, and activity was accurately quantified by γ-counting to determine radioactivity uptake in the percentage of injected dose per gram (%ID/g). After γ-counting, the tumors were frozen in liquid nitrogen and stored at −80 °C overnight. Adjacent cryosections (10 µm) were prepared of the tumor centers for autoradiography. The sections were stored at −20 °C for the radioactivity to decay, before 800 nm fluorescence imaging and histochemical dead cell staining.

CC1(C)C(=CC=C2CCCC(C=CC3=[N+](CCCCCC(=O)NCCCC[C@H](NC(=O)CCCc4ccc(I)cc4)C(=O)NCc4ccc(CNC(=O)CN5CCN(CC(=O)[O-])CCN(CC(=O)[O-])CCN(CC(=O)[O-])CC5)cc4)c4ccc(S(=O)(=O)O)cc4C3(C)C)=C2Oc2ccc(S(=O)(=O)O)cc2)N(CCCCS(=O)(=O)O)c2ccc(S(=O)(=O)O)cc21.[111In+3] [[^111In]3]
radioactive tumor uptake in the SPECT images (4T1-Luc2 tumors): 3.83 ± 0.19 %ID/mL
excretion route ([1]; 4T1-Luc2 tumor-bearing mice, from biodistribution): predominately excreted via the renal tract
blood half-life ([1]; 4T1-Luc2 tumor-bearing mice, i.v.): 9 h
Tumor to blood ratio ([1]; 6 h p.i.): 0.91±0.05
Tumor to muscle ratio ([1]; 6 h p.i.): 3.19±0.43
Blood uptake ([1]; 6 h p.i., i.v.): 4.34±0.22 %ID/g
Bone marrow uptake ([1]; 6 h p.i., i.v.): 1.42±0.87 %ID/g
Bone uptake ([1]; 6 h p.i., i.v.): 1.63±0.16 %ID/g
Brain uptake ([1]; 6 h p.i., i.v.): 0.14±0.03 %ID/g
Colon uptake ([1]; 6 h p.i., i.v.): 1.60±0.13 %ID/g
Heart uptake ([1]; 6 h p.i., i.v.): 2.32±0.11 %ID/g
Kidneys uptake ([1]; 6 h p.i., i.v.): 6.04±1.13 %ID/g
Liver uptake ([1]; 6 h p.i., i.v.): 2.24±0.28 %ID/g
Lung uptake ([1]; 6 h p.i., i.v.): 3.29±0.25 %ID/g
Lymph nodes uptake ([1]; 6 h p.i., i.v.): 3.91±0.97 %ID/g
Muscle uptake ([1]; 6 h p.i., i.v.): 1.31±0.20 %ID/g
Pancreas uptake ([1]; 6 h p.i., i.v.): 1.33±0.13 %ID/g
Skin uptake ([1]; 6 h p.i., i.v.): 2.59±0.09 %ID/g
Small intestine uptake ([1]; 6 h p.i., i.v.): 0.93±0.07 %ID/g
Spleen uptake ([1]; 6 h p.i., i.v.): 1.87±0.18 %ID/g
4T1-Luc2 Tumors uptake ([1]; 6 h p.i., i.v.): 3.94±0.19 %ID/g
Tumor to blood ratio ([1]; 24 h p.i.): 2.50 ± 0.20
Tumor to muscle ratio ([1]; 24 h p.i.): 7.26±0.89
Blood uptake ([1]; 24 h p.i., i.v.): 1.31±0.05 %ID/g
Bone uptake ([1]; 24 h p.i., i.v.): 0.93±0.13 %ID/g
Brain uptake ([1]; 24 h p.i., i.v.): 0.07±0.00 %ID/g
Colon uptake ([1]; 24 h p.i., i.v.): 0.70±0.07 %ID/g
Heart uptake ([1]; 24 h p.i., i.v.): 1.22±0.06 %ID/g
Liver uptake ([1]; 24 h p.i., i.v.): 1.20±0.01 %ID/g
Lung uptake ([1]; 24 h p.i., i.v.): 1.20±0.04 %ID/g
Lymph nodes uptake ([1]; 24 h p.i., i.v.): 2.42±0.18 %ID/g
Muscle uptake ([1]; 24 h p.i., i.v.): 0.46±0.03 %ID/g
Pancreas uptake ([1]; 24 h p.i., i.v.): 0.65±0.05 %ID/g
Skin uptake ([1]; 24 h p.i., i.v.): 1.83±0.29 %ID/g
Small intestine uptake ([1]; 24 h p.i., i.v.): 0.53±0.05 %ID/g
Spleen uptake ([1]; 24 h p.i., i.v.): 1.45±0.03 %ID/g
4T1-Luc2 Tumors uptake ([1]; 24 h p.i., i.v.): 3.27±0.25 %ID/g
Tumor to blood ratio ([1]; 48 h p.i.): 4.54±0.45
Tumor to muscle ratio ([1]; 48 h p.i.): 7.27±0.34
Blood uptake ([1]; 48 h p.i., i.v.): 0.58±0.01 %ID/g
Bone uptake ([1]; 48 h p.i., i.v.): 0.74±0.04 %ID/g
Brain uptake ([1]; 48 h p.i., i.v.): 0.04±0.00 %ID/g
Colon uptake ([1]; 48 h p.i., i.v.): 0.37±0.02 %ID/g
Heart uptake ([1]; 48 h p.i., i.v.): 0.78±0.01 %ID/g
Kidneys uptake ([1]; 48 h p.i., i.v.): 8.31±0.96 %ID/g
Liver uptake ([1]; 48 h p.i., i.v.): 0.90±0.04 %ID/g
Lung uptake ([1]; 48 h p.i., i.v.): 0.76±0.03 %ID/g
Lymph nodes uptake ([1]; 48 h p.i., i.v.): 3.30±0.62 %ID/g
Muscle uptake ([1]; 48 h p.i., i.v.): 0.36±0.03 %ID/g
Pancreas uptake ([1]; 48 h p.i., i.v.): 0.48±0.04 %ID/g
Skin uptake ([1]; 48 h p.i., i.v.): 1.46±0.03 %ID/g
Small intestine uptake ([1]; 48 h p.i., i.v.): 0.33±0.01 %ID/g
Spleen uptake ([1]; 48 h p.i., i.v.): 1.19±0.07 %ID/g
4T1-Luc2 Tumors uptake ([1]; 48 h p.i., i.v.): 2.62±0.23 %ID/g
Tumor to blood ratio ([1]; 72 h p.i.): 7.36±0.93
Tumor to muscle ratio ([1]; 72 h p.i.): 9.10±1.58
Blood uptake ([1]; 72 h p.i., i.v.): 0.31±0.03 %ID/g
Bone marrow uptake ([1]; 72 h p.i., i.v.): 2.25±0.65 %ID/g
Bone uptake ([1]; 72 h p.i., i.v.): 0.51±0.05 %ID/g
Brain uptake ([1]; 72 h p.i., i.v.): 0.03±0.00 %ID/g
Colon uptake ([1]; 72 h p.i., i.v.): 0.23±0.02 %ID/g
Heart uptake ([1]; 72 h p.i., i.v.): 0.63±0.02 %ID/g
Kidneys uptake ([1]; 72 h p.i., i.v.): 5.72±0.49 %ID/g
Liver uptake ([1]; 72 h p.i., i.v.): 0.83±0.04 %ID/g
Lung uptake ([1]; 72 h p.i., i.v.): 0.56±0.05 %ID/g
Lymph nodes uptake ([1]; 72 h p.i., i.v.): 2.39±0.25 %ID/g
Muscle uptake ([1]; 72 h p.i., i.v.): 0.26±0.03 %ID/g
Pancreas uptake ([1]; 72 h p.i., i.v.): 0.32±0.02 %ID/g
Skin uptake ([1]; 72 h p.i., i.v.): 1.52±0.09 %ID/g
Small intestine uptake ([1]; 72 h p.i., i.v.): 0.20±0.02 %ID/g
Spleen uptake ([1]; 72 h p.i., i.v.): 1.10±0.18 %ID/g
4T1-Luc2 Tumors uptake ([1]; 72 h p.i., i.v.): 2.25±0.64 %ID/g
ex vivo colocalization with dead cells (autoradiography, NIR fluorescence, TUNEL) ([1]; adjacent sections of 4T1-Luc2 tumors): specific binding of the tracer to necrotic tumor regions
